The text below walks through data of patent publication US10238702B2, “Pharmaceutical composition, preparation method therefor and use thereof” (SICHUAN JIUZHANG BIOLOGICAL SCIENCE AND TECHNOLOGY CO., LTD, priority 2013, dated 2019).

Marks after values point to notes of the source that are not given here.

The subject of assay [1] is mouse macrophages. Nature of the assay: Carbon granules clearance test. Type of assay: in vivo, Kunming mice. The note with it: once per day for four weeks, 300 mg/kg (Mannatide 20 mg/kg); for α value (X ± SD): corrected phagotrophic index; for K value (X ± SD): Indian ink via vena caudalis, blood at 1 and 5 min. Here is the method:
Kunming mice were randomly divided into seven groups according to gender and body weight, with 10 mice in each group. As the dose design in Table 14, all groups were administrated once per day at a dose of 0.4 ml/20 g for successive four weeks. Mice were weighed for two times per week, to adjust the drug dosage. One hour after final administration, each mouse in each group was injected with Indian ink [(1:4)0.1 ml·10 g^−1] via vena caudalis. […] After animals were sacrificed by cervical dislocation, liver and spleen were collected and weighed, to calculate the phagotrophic index K=(log OD^1−log OD2)/(t2−t1) and correct the phagotrophic index α=[body weight/(liver weight+spleen weight)]×K^1/3.

The subject of assay [2] is mouse peritoneal macrophages. The assay is described as follows: Phagocytosis test of chicken red blood cell. In kind it is in vivo, Kunming mice. The note with it: intragastric once per day for four weeks, 300 mg/kg (Mannatide 20 mg/kg); for Phagotrophic percentage (%, X ± SD): chicken red blood cells phagocytized by 100 macrophages. Here is the method: Kunming mice were randomly divided into seven groups according to gender and body weight, with 12 mice in each group. As the dose design, all groups received one intragastric administration per day at a dose of 0.4 ml/20 g for successive four weeks. Mice were weighed for two times per week, to adjust the drug dosage. 30 minutes after final administration, each mouse in each group was injected intraperitoneally with 5% chicken erythrocyte suspension at a dose of 1.0 ml/mouse. Six hours after injection, animals were sacrificed by cervical dislocation, and received 2 ml physiological saline via peritoneal injection, while the abdomen of mice was gently massaged. Then, one pin hole was cut in the center of peritoneum, and washing water in peritoneal cavity was extracted, dropped on microscope slide, and cultured for 30 min in incubator at 37° C. The solution was washed with normal saline, fixed using methanol, and dyed by Giemsa staining. The numbers of chicken red blood cell phagocytized by 100 macrophages were observed under oil immersion lens. The phagotrophic percentage and the phagotrophic index were calculated according to the following formula, and results were shown in Table 15. [formula] [formula]

In assay [3] the test system is oxygen radicals. The assay is described as follows: Metabolism of in vivo oxygen radicals (serum SOD activity, MDA content). Also on record: species or system C57BL/6 mice. The note with it: blood serum, intragastric once per day for four weeks, 300 mg/kg (IFNa-2b 300 0000 IU). Here is the method: Experimental methods: C57BL/6 mice were randomly divided to eight groups as body weight, with 10 mice in each group. According to the dose design in Table 14, all groups received one intragastric administration per day at a dose of 0.4 ml/20 g for successive four weeks. Mice were weighed for two times per week, to adjust the drug dosage. On the last day of experiment, blood samples were drawn from femoral artery of animals and centrifuged to collect blood serum. Using TBA colorimetric method and xanthine oxidase method, application of sample was performed according to procedures of kit instructions, and absorbance values were measured at wavelengths of 532 nm and 550 nm using UV2300 Ultraviolet spectrophotometer. MDA content and SOD activity were calculated, respectively.

For the compound `O=C(/C=C/c1ccc(O)c(O)c1)O[C@@H]1C[C@](O)(C(=O)O)C[C@@H](O)[C@H]1O` [Chologenic acid, Chlorogenic acid], in assay [1], the “α value (X ± SD)” value was determined as 3.94 ± 1.05 and the “K value (X ± SD)” value was 0.019 ± 0.011. In addition, in assay [2], the “Phagotrophic index (X ± SD)” value turned out to be 0.52 ± 0.07 and the “Phagotrophic percentage (%, X ± SD)” value worked out at 36.58 ± 4.50 %. Besides, the “MDA(nmol/L) (x ± s)” value in assay [3] (TBA colorimetric method) is reported as 27.14 ± 3.41 nmol/L. Also, the “SOD(U/L) (x ± s)” value in assay [3] (xanthine oxidase method) is on record as 218.73 ± 25.32 ^ U/L.

Mannatide [reference compound]: in assay [1], the “α value (X ± SD)” value worked out at 4.43 ± 1.06 and the “K value (X ± SD)” value stood at 0.019 ± 0.013. Also, in assay [2], the “Phagotrophic index (X ± SD)” value is on record as 0.57 ± 0.05***^ΔΔ and the “Phagotrophic percentage (%, X ± SD)” value is recorded as 40.32 ± 2.25***^ΔΔ %.
